Source: publication PMC8910697, “Development of VPC-70619, a Small-Molecule N-Myc Inhibitor as a Potential Therapy for Neuroendocrine Prostate Cancer” (International Journal of Molecular Sciences, 2022)

How the values were obtained:
Type in all cases: cell-based
IMR32 cells = experiment: Cell viability (CellTiter-Glo), IMR32; details: Homo sapiens, IMR-32
Experimental: (§1) The 54 compounds were tested at 10 µM for their inhibition of the IMR32 human neuroblastoma cell line, in which the MYCN gene is amplified and actively expressed (Table 3). HO15.19 cell line (Myc-negative) was used in parallel as a compound specificity control.
(§2) Viability of N-Myc positive (IMR32and NCI-H660) and negative (HO15.19) cells were determined using the CellTiter-Glo Luminescent Cell Viability Assay (Promega cat. G7570) (Madison, WI, USA). Cells were seeded into a 96-well white plate with a clear bottom: 10,000 cells per well for the IMR32 cells cultured in EMEM supplemented with 10% FBS, 2000 HO15.19 cells per well in Eagle’s minimum essential medium (EMEM) supplemented with 10% FBS, and 2000 cells per well for the NCI-H660 neuroendocrine cells cultured in RPMI supplemented 5% FBS, 1% Insulin-Transferrin-Selenium (Thermo Fisher, 41400-045), 10nM b-estradiol (Sigma, E8875), 10nM hydrocortisone (Sigma H0888) and 1% matrigel. Following 24 h incubation, the cells were treated with serial dilutions of the derivatives along with the respective parental compound starting at 25 μM for 72 h. Cell Titer Glo was added to each well at a ratio of 1:1 and incubated on a shaker at RT for 2 min. Luminescence and IC50 was measured with the TECAN InfiniteM200 plate reader (Männedorf, Switzerland).

[1] = system: N-Myc-Max transcription activity (LNCaP-NMYC cells); experiment: Myc transcription assay (Cignal Myc reporter, luciferase) in LNCaP-NMYC cells; design: 10 uM corrected / 5uM corrected: unit not given here; details: for transcription inhibition activity (in words) / transcription inhibition activity at 5 µM (in words) / inhibition at 5 µM / inhibition at 10 µM: LNCaP-NMYC; for transcription inhibition activity (in words): screened at 10 µM and 5 µM; for 5uM corrected / 10 uM corrected: sheet 181_set; for inhibition at 5 µM / inhibition at 10 µM: 24 h; for inhibition at 5 µM: read-out: % Transcript Inhibition (5 µM); for inhibition at 10 µM: read-out: % Transcript Inhibition (10 µM); for IC50: Homo sapiens, LNCaP, Table 2, transcriptional assay in LNCaP cells overexpressing N-Myc, read-out: IC50
Experimental: To determine the optimal substitutions on the free phenyl ring, we used the active scaffold for a second substructure search against the ZINC15 database to identify a set of 181 analogues for further validation (VPC-70617 to -70799, presented in Supplementary Table S1). Compounds were tested for their inhibition of a N-Myc-Max luciferase transcription activity assay at 5 and 10 µM Figure 2a. Herein, we inspected all the proposed substitutions on the scaffold to discern the features required to construct a possible SAR model for inhibitors targeting N-Myc-Max/DBD complex (Figure 2b).
LNCaP-NMYC cells were transfected using TransIT-2020 transfection reagents per the manufacturer’s protocol. Cells were plated at a density of 10,000 cells per well of a 96-well plate. Following 24 h treatment with 5 µM or 10 µM of the compounds, the Myc reporter activity was measured using the Cignal Myc Reporter Assay Kit from Qiagen (#336841) (Hilden, Germany) per the manufacturer’s instructions.

HO15.19 cells = experiment: Cell viability counter-screen (CellTiter-Glo), Myc-negative HO15.19; details: Rattus norvegicus, HO15.19, 10 µM; Myc-negative specificity control
Experimental: as §1, §2

Structure (SMILES) | transcription inhibition activity (in words) [1] | inhibition at 5 µM [1] [%] | inhibition at 10 µM [1] [%] | IC50 [1] [µM] | other results
N#Cc1ccc(NNC(=O)c2cc(F)cc(F)c2)c(C(F)(F)F)c1 [compound 70639] | better inhibition activity | – | – | – | inhibition at 10 µM (IMR32 cells): 60.2%; inhibition at 10 µM (HO15.19 cells): 66.1%
N#Cc1ccc(NNC(=O)c2ccc(Cl)c(C#N)c2)c(C(F)(F)F)c1 [compound 70662] | – | – | – | – | inhibition at 10 µM (IMR32 cells): 11%; transcription inhibition activity at 5 µM (in words) [1]: recovered the activity; inhibition at 10 µM (HO15.19 cells): 9.9%
N#Cc1ccc(NNC(=O)c2cc(F)c(F)cc2F)c(C(F)(F)F)c1 [compound 70772] | nullified activity | – | – | – | 5uM corrected [1]: 22; 10 uM corrected [1]: 94
CN(C)c1ccc(C(=O)NNc2ccc(C#N)cc2C(F)(F)F)cc1 [compound 70605] | – | -74 | 26 | – | –
Cc1ccc(C(=O)NNc2ccc(C#N)cc2C(F)(F)F)cc1 [compound 70600] | – | -22 | 10 | – | –
N#Cc1ccc(NNC(=O)c2cc(Cl)cc(Br)c2F)c(C(F)(F)F)c1 [compound 70768] | high transcription inhibition activity | – | – | – | inhibition at 10 µM (IMR32 cells): 35.3%; inhibition at 10 µM (HO15.19 cells): 39.8%
N#Cc1ccc(NNC(=O)c2cccc(Br)c2)c(C(F)(F)F)c1 [compound 70754] | better inhibition activity | – | – | – | 5uM corrected [1]: 94; 10 uM corrected [1]: 60
N#Cc1ccc(NNC(=O)c2ccc(Cl)cc2)c(C(F)(F)F)c1 [compound 70599] | significantly more active | 96 | 78 | 3 | –
N#Cc1ccc(C(=O)NNc2ccc(C(F)(F)F)cc2)cc1 [compound 70584] | – | 34 | 30 | > 20 | –
N#Cc1ccc(NNC(=O)c2ccc(I)cc2)c(C(F)(F)F)c1 [compound 70589] | – | 64 | 94 | 3 | –
N#Cc1cccc(C(=O)NNc2ccc(C#N)cc2C(F)(F)F)c1 [compound 70672] | – | – | – | – | inhibition at 10 µM (IMR32 cells): 18%; inhibition at 10 µM (HO15.19 cells): 8.1%
N#Cc1ccc(NNC(=O)c2ccc(Cl)cc2Cl)c(C(F)(F)F)c1 [compound 70624] | abolished inhibitory activity | – | – | – | 5uM corrected [1]: 8; 10 uM corrected [1]: 78
N#Cc1ccc(NNC(=O)c2ccc(C#N)cc2)cc1 [compound 70587] | – | -58 | 14 | – | –
N#Cc1ccc(NNC(=O)c2ccccc2)c(C(F)(F)F)c1 [compound 70603] | – | -30 | -12 | > 20 | –
N#Cc1ccc(NNC(=O)c2cccc(C(F)(F)F)c2)c(C(F)(F)F)c1 [compound 70596] | significantly more active | 96 | 94 | 2 | –
N#Cc1ccc(NNC(=O)c2ccc(F)cc2)c(C(F)(F)F)c1 [compound 70591] | – | 18 | 64 | 25 | –
CC(F)(F)c1ccc(C(=O)NNc2ccc(C#N)cc2)cc1 [compound 70607] | – | -20 | -8 | – | –
O=C(NNc1ccccc1C(F)(F)F)c1ccc(C(F)(F)F)cc1 [compound 70611] | significantly reduced inhibition activity | -28 | 4 | > 20 | –
O=C(NNc1ccccc1F)c1ccc(C(F)(F)F)cc1 [compound 70585] | – | 16 | 24 | > 20 | –
N#Cc1ccc(NNC(=O)c2ccc(SC(F)F)cc2)c(C(F)(F)F)c1 [compound 70682] | – | – | – | – | inhibition at 10 µM (IMR32 cells): 11%; inhibition at 10 µM (HO15.19 cells): 22.9%
N#Cc1ccc(NNC(=O)c2ccccc2Cl)c(C(F)(F)F)c1 [compound 70701] | declined considerably or was lost completely | – | – | – | 5uM corrected [1]: -28; 10 uM corrected [1]: 6
N#Cc1ccc(NNC(=O)c2ccccc2F)c(C(F)(F)F)c1 [compound 70709] | declined considerably or was lost completely | – | – | – | 5uM corrected [1]: 0; 10 uM corrected [1]: -10

Structure (SMILES) | transcription inhibition activity (in words) [1] | inhibition at 5 µM [1] [%] | inhibition at 10 µM [1] [%] | IC50 [1] [µM] | other results
O=C(NNc1ccccc1C(F)(F)F)c1ccc(F)cc1 [compound 70609] | – | 20 | 12 | – | –
Cc1ccc(C(=O)NNc2ccc(C#N)cc2C(F)(F)F)cc1F [compound 70765] | lower transcription inhibition or no activity at all | – | – | – | 5uM corrected [1]: 30; 10 uM corrected [1]: 54
CC(C)c1ccc(C(=O)NNc2ccc(C#N)cc2C(F)(F)F)cc1 [compound 70595] | – | 30 | 70 | 12 | –
C=Cc1ccc(C(=O)NNc2ccc(C#N)cc2C(F)(F)F)cc1 [compound 70590] | – | 38 | 62 | 15 | –
N#Cc1ccc(NNC(=O)c2ccc(C(F)(F)F)cc2)cc1 [compound 70586] | significantly reduced inhibition activity | 28 | 34 | > 20 | –
Cc1cc(C(=O)NNc2ccc(C#N)cc2C(F)(F)F)ccc1Cl [compound 70617] | – | – | – | – | 5uM corrected [1]: 4; 10 uM corrected [1]: 96; transcription inhibition activity at 5 µM (in words) [1]: did not impart any inhibitory activity
C#Cc1ccc(C(=O)NNc2ccc(C#N)cc2C(F)(F)F)cc1 [compound 70582] | – | 44 | 84 | 8 | –
N#Cc1ccc(C(=O)NNc2ccc(C#N)cc2C(F)(F)F)cc1 [compound 70593] | significantly more active | -26 | 70 | 12 | –
CC(C)(C#N)c1ccc(C(=O)NNc2ccc(C#N)cc2C(F)(F)F)cc1 [compound 70594] | – | 22 | 10 | – | –
N#Cc1ccc(NNC(=O)c2ccccc2I)c(C(F)(F)F)c1 [compound 70702] | declined considerably or was lost completely | – | – | – | 5uM corrected [1]: -10; 10 uM corrected [1]: 10
Cc1cc(C)cc(C(=O)NNc2ccc(C#N)cc2C(F)(F)F)c1 [compound 70651] | no activity | – | – | – | 5uM corrected [1]: -32; 10 uM corrected [1]: 0
CC(F)(F)c1ccc(C(=O)NNc2ccc(C#N)cc2C(F)(F)F)cc1 [compound 70608] | – | -14 | 38 | – | –
N#Cc1ccc(NNC(=O)c2ccc(OC(F)F)cc2)c(C(F)(F)F)c1 [compound 70588] | – | 32 | 46 | – | –
O=C(NNc1ccc(C(F)(F)F)cc1)c1ccc(C(F)(F)F)cc1 [compound 70583] | – | 8 | 28 | > 20 | –
N#Cc1ccc(NNC(=O)c2ccc(C(N)=O)cc2)c(C(F)(F)F)c1 [compound 70601] | – | 16 | -12 | – | –
N#Cc1ccc(NNC(=O)c2ccc(C(F)(F)F)cc2)c(C(F)(F)F)c1 [compound 70597] | – | 26 | 82 | 12 | –
CC(F)(F)c1ccc(C(=O)NNc2ccccc2C(F)(F)F)cc1 [compound 70606] | – | 0 | -10 | – | –
CS(=O)(=O)c1cc(C(=O)NNc2ccc(C#N)cc2C(F)(F)F)ccc1Cl [compound 70721] | – | – | – | – | 5uM corrected [1]: -42; 10 uM corrected [1]: 2; transcription inhibition activity at 5 µM (in words) [1]: did not impart any inhibitory activity
N#Cc1ccc(NNC(=O)c2ccc(C#N)c(O)c2)c(C(F)(F)F)c1 [compound 70673] | – | – | – | – | 5uM corrected [1]: -56; 10 uM corrected [1]: -38
N#Cc1ccc(NNC(=O)c2ccc(Br)cc2)c(C(F)(F)F)c1 [compound 70602] | – | 12 | 48 | – | –
Cc1ccc(C(=O)NNc2ccc(C#N)cc2C(F)(F)F)cc1Cl [compound 70628] | lower transcription inhibition or no activity at all | – | – | – | 5uM corrected [1]: 8; 10 uM corrected [1]: 90
